Experimental data: ChEMBL document CHEMBL5634141 (Eur J Med Chem, 2023)
Calls of active or inactive are those of the source. The calls are words filed in the database; no cut-off is given here.

Legend:
NCI-H358 [1] = assay: Synergistic antiproliferative activity against human NCI-H358 cells expressing KRAS G12C mutant assessed as combination index incubated for 72 hrs in presence of AZD4573 by CCK-8 assay; type: functional
MIA PaCa-2 [2] = assay: Antitumor activity against human MIA PaCa-2 cells xenografted in BALB/c nude mouse assessed as reduction in number of tumor foci at 10 to 30 mg/kg, ip administered for 16 days by hematoxylin and eosin staining based analysis; type: functional, organism-based; conditions: dose 10-30 mg/kg, time 16.0 day
MIA PaCa-2 [3] = assay: Antitumor activity against human MIA PaCa-2 cells xenografted in BALB/c nude mouse assessed as tumor growth inhibition at 30 mg/kg, ip measured after 8 days relative to control; type: functional; conditions: MIA PaCa-2, 192 h, time 8 day, read-out: TGI
NCI-H23 [4] = assay: Antiproliferative activity against human NCI-H23 cells expressing KRAS G12C mutant assessed as relative cell viability at 30 nM incubated for 72 hrs in presence of daclolisib by CCK-8 assay; type: functional; conditions: read-out: Activity
MIA PaCa-2 [5] = assay: Antitumor activity against human MIA PaCa-2 cells xenografted in BALB/c nude mouse assessed as reduction in percentage of Ki67-positive cells at 10 to 30 mg/kg, ip administered for 16 days by immunohistochemical staining analysis; type: functional, organism-based; conditions: dose 10-30 mg/kg, time 16.0 day
NCI-H358 [6] = assay: Synergistic antiproliferative activity against human NCI-H358 cells expressing KRAS G12C mutant assessed as combination index at 30 nM incubated for 72 hrs in presence of infigratinib by CCK-8 assay; type: functional
NCI-H358 [7] = assay: Inhibition of colony formation in human NCI-H358 cells expressing KRAS G12C mutant assessed as reduction in cell number at 30 nM incubated for 14 days in presence of SHP099 by crystal violet staining based analysis; type: functional; conditions: time 14.0 day
Mus musculus = assay: In vivo PROTAC activity at VHL/KRAS G12C mutant in BALB/c nude mouse xenografted with human MIA PaCa-2 cells assessed as decrease in AKT phosphorylation at 10 to 30 mg/kg, ip administered for 16 days by Western blot analysis; type: functional, organism-based; conditions: dose 10-30 mg/kg, time 16.0 day
Calu-1 [8] = assay: Antiproliferative activity against human Calu-1 cells expressing KRAS G12C mutant assessed as relative cell viability at 30 nM incubated for 72 hrs in presence of naporafenib by CCK-8 assay; type: functional; conditions: read-out: Activity
NCI-H358 [9] = assay: Antiproliferative activity against human NCI-H358 cells expressing KRAS G12C mutant assessed as relative cell viability at 30 nM incubated for 72 hrs in presence of crizotinib by CCK-8 assay; type: functional; conditions: read-out: Activity
MIA PaCa-2 [10] = assay: Antiproliferative activity against human MIA PaCa-2 cells expressing KRAS G12C mutant assessed as relative cell viability at 30 nM incubated for 72 hrs in presence of crizotinib by CCK-8 assay; type: functional; conditions: read-out: Activity
MIA PaCa-2 [11] = assay: Induction of apoptosis in human MIA PaCa-2 cells assessed as early apoptotic cells at 300 nM incubated for 48 hrs by Annexin V-FITC staining based flow cytometry analysis (reference value: 1.55 %); type: functional
[12] = tested on: von Hippel-Lindau disease tumor suppressor/GTPase KRas (Homo sapiens), P01116+P40337 [G12C]; assay: PROTAC activity at VHL/KRAS G12C mutant in human NCI-H358 cells assessed as induction of protein degradation at 100 nM preincubated with MLN4924 for 6 hrs followed by compound addition and measured after 48 hrs by Western blotting analysis; type: cell-based
ASPC1 = assay: Antiproliferative activity against human ASPC1 cells expressing KRAS G12D mutant assessed as inhibition of cell growth incubated for 72 hrs by CCK-8 assay; type: functional, cell-based; conditions: ASPC1, 72 h
MIA PaCa-2 [13] = assay: Induction of apoptosis in human MIA PaCa-2 cells assessed as early apoptotic cells at 100 nM incubated for 48 hrs by Annexin V-FITC staining based flow cytometry analysis (reference value: 1.55 %); type: functional
NCI-H358 [14] = assay: Antiproliferative activity against human NCI-H358 cells expressing KRAS G12C mutant assessed as reduction of cell growth by measuring fold decrease in IC50 incubated for 72 hrs in presence of SHP099 by CCK-8 assay; type: functional
SW837 [15] = assay: Antiproliferative activity against human SW837 cells expressing KRAS G12C mutant assessed as relative cell viability at 30 nM incubated for 72 hrs by CCK-8 assay; type: functional; conditions: read-out: Activity
MIA PaCa-2 [16] = assay: Induction of apoptosis in human MIA PaCa-2 cells assessed as necrotic cells at 30 nM incubated for 48 hrs by Annexin V-FITC staining based flow cytometry analysis (reference value: 1.25 %); type: functional
NCI-H23 [17] = assay: Antiproliferative activity against human NCI-H23 cells expressing KRAS G12C mutant assessed as relative cell viability at 30 nM incubated for 72 hrs in presence of naporafenib by CCK-8 assay; type: functional; conditions: read-out: Activity
NCI-H358 [18] = assay: Synergistic antiproliferative activity against human NCI-H358 cells expressing KRAS G12C mutant assessed as combination index at 30 nM incubated for 72 hrs in presence of crizotinib by CCK-8 assay; type: functional
[19] = tested on: von Hippel-Lindau disease tumor suppressor/GTPase KRas (Homo sapiens), P01116+P40337 [G12C]; assay: PROTAC activity at VHL/KRAS G12C mutant in human NCI-H358 cells assessed as induction of protein degradation at 100 nM incubated for 48 hrs by Western blotting analysis relative to control; type: cell-based
[20] = tested on: von Hippel-Lindau disease tumor suppressor/GTPase KRas (Homo sapiens), P01116+P40337 [G12C]; assay: PROTAC activity at VHL/KRAS G12C mutant in human MIA PaCa-2 cells assessed as inhibition of ERK phosphorylation at 100 nM incubated for 1 to 8 days by Western blotting analysis; type: cell-based; conditions: time 1-8 day
Calu-1 [21] = assay: Antiproliferative activity against human Calu-1 cells expressing KRAS G12C mutant assessed as relative cell viability at 30 nM incubated for 72 hrs in presence of crizotinib by CCK-8 assay; type: functional; conditions: read-out: Activity
[22] = Toxicity in BALB/c nude mouse xenografted with human MIA PaCa-2 cells at 10 to 30 mg/kg, ip measured after 16 days; type: organism-based; conditions: in vivo, 384 h, dose 10-30 mg/kg, time 16 day
[23] = Half life in ICR mouse at 2 mg/kg, iv measured after 24 hrs by LC-MS/MS analysis; type: ADME, organism-based; conditions: in vivo
[24] = tested on: von Hippel-Lindau disease tumor suppressor/GTPase KRas (Homo sapiens), P01116+P40337 [G12C]; assay: PROTAC activity at VHL/KRAS G12C mutant in human MIA PaCa-2 cells assessed as induction of protein degradation at 100 nM incubated for 48 hrs by Western blotting analysis relative to control; type: cell-based
HepG2 = assay: Antiproliferative activity against human HepG2 cells expressing KRAS assessed as inhibition of cell growth incubated for 72 hrs by CCK-8 assay; type: functional, cell-based; conditions: HepG2, 72 h
NCI-H358 [25] = assay: Synergistic antiproliferative activity against human NCI-H358 cells expressing KRAS G12C mutant assessed as combination index at 30 nM incubated for 72 hrs in presence of selumetinib by CCK-8 assay; type: functional
MIA PaCa-2 [26] = assay: Antiproliferative activity against human MIA PaCa-2 cells expressing KRAS G12C mutant assessed as inhibition of cell growth incubated for 72 hrs by CCK-8 assay; type: functional, cell-based; conditions: MIA PaCa-2, 72 h
[27] = Clearance in ICR mouse at 2 mg/kg, iv measured after 24 hrs by LC-MS/MS analysis; type: ADME, organism-based; conditions: in vivo
SW837 [28] = assay: Antiproliferative activity against human SW837 cells expressing KRAS G12C mutant assessed as relative cell viability at 30 nM incubated for 72 hrs in presence of naporafenib by CCK-8 assay; type: functional; conditions: read-out: Activity

## C=CC(=O)N1CCN(c2nc(=O)n(-c3c(C)ccnc3C(C)C)c3nc(-c4c(F)cccc4OCC4CCN(CCCC(=O)N[C@H](C(=O)N5C[C@H](O)C[C@H]5C(=O)NCc5ccc(-c6scnc6C)cc5)C(C)(C)C)CC4)c(F)cc23)[C@@H](C)C1
NCI-H358 [1]
  CI: <1
MIA PaCa-2 [2]
  Activity: Active
MIA PaCa-2 [3]
  inhibition in vivo at 30 mg/kg: > 100%
NCI-H23 [4]
  viability at 0.03 µM: 0.23%
MIA PaCa-2 [5]
  Activity: Active
NCI-H358 [6]
  CI: <1
NCI-H358 [7]
  inhibition: Active
Mus musculus
  Activity: Active
Calu-1 [8]
  viability at 0.03 µM: 0.44%
NCI-H358 [9]
  viability at 0.03 µM: 0.43%
MIA PaCa-2 [10]
  viability at 0.03 µM: 0.28%
MIA PaCa-2 [11]
  Activity: 9.58%
[12]
  Activity: inactive
ASPC1
  IC50: > 10 µM
MIA PaCa-2 [13]
  Activity: 6.73%
NCI-H358 [14]
  fold change (FC): ~4
SW837 [15]
  viability at 0.03 µM: 0.77%
MIA PaCa-2 [16]
  Activity: 1.37%
NCI-H23 [17]
  viability at 0.03 µM: 0.34%
NCI-H358 [18]
  CI: <1
[19]
  Activity: 100%
[20]
  Activity: Active
Calu-1 [21]
  viability at 0.03 µM: 0.31%
[22]
  Activity: Non-Toxic
[23]
  t1/2: 52.6 min
[24]
  Activity: 100%
HepG2
  IC50: > 10 µM
NCI-H358 [25]
  CI: <1
MIA PaCa-2 [26]
  IC50: 0.045 µM
[27]
  clearance: 84.2 mL/min/kg
SW837 [28]
  viability at 0.03 µM: 0.32%
